# Results from patent publication US9611277B2 (Janssen Pharmaceutica NV, priority 2013, dated 2017).
# Columns and labels:
# [1] = molecular target: rat orexin 1 receptor (Rattus norvegicus, UniProt P56718); test: Rat orexin 1 receptor radioligand binding; details: rat orexin 1 receptor; averages of 2-20 runs; read-out: rOX1 Ki
# How it was run: (§1)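 Ki values derive from one-site competition IC50s corrected with the radioligand's predetermined Kd, triplicates per run, averaged over 2-20 runs. Cell homogenates (rat or human OX1R) compete against [^3H]-thiazolyl-oxadiazolyl-pyrrolidine methanone in PBS; 10 μM almorexant sets nonspecific binding; scintillation counting after washing.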
# [2] = molecular target: human orexin 2 receptor (Homo sapiens (Human), UniProt O43614); test: Human orexin 2 receptor radioligand binding; details: human orexin 2 receptor; averages of 2-20 runs; read-out: hOX2 Ki
# How it was run: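 Ki derived from one-site competition IC50 using predetermined Kd of [3H]-EMPA, triplicate points, 2-20 runs averaged. Binding done on homogenized HEK293 cells stably expressing human orexin 2 receptor, DMSO ≤0.1%, with 10 μM almorexant defining nonspecific binding; filtered, washed, scintillation counted.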
# [3] = molecular target: human orexin 1 receptor (Homo sapiens, UniProt O43613); test: Human orexin 1 receptor radioligand binding; details: human orexin 1 receptor; averages of 2-20 runs; read-out: hOX1 Ki
# How it was run: as §1
# Sequence of human orexin 2 receptor (O43614 whole entry): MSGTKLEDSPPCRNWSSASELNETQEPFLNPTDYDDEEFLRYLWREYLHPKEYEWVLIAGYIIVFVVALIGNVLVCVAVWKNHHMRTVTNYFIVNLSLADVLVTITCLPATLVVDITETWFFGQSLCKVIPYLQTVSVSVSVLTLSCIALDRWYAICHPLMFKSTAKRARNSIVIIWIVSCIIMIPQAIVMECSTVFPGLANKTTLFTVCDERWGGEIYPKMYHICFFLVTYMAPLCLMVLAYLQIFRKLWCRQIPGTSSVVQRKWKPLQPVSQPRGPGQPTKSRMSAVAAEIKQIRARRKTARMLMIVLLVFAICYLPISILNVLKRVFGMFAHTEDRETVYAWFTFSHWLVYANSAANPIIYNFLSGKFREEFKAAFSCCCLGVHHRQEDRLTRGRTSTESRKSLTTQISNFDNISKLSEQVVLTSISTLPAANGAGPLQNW
SMILES,Ki [1] [nM],Ki [2] [nM],Ki [3] [nM]
"Cc1ccc(O[C@@H]2C[C@H]3C[C@@H]2N(C(=O)c2cccc(F)c2-c2ncccn2)C3)nc1 [Example 101, (3-fluoro-2-(pyrimidin-2-yl)phenyl)((1S,4R,6R)-6-((5-methylpyridin-2-yl)oxy)-2-azabicyclo[2.2.1]heptan-2-yl)methanone]",26,710,11
"Cc1ccc(C(=O)N2C[C@H]3C[C@@H](Oc4ccc(Br)cn4)[C@@H]2C3)c(-n2nccn2)n1 [Example 105, ((1S,4R,6R)-6-((5-bromopyridin-2-yl)oxy)-2-azabicyclo[2.2.1]heptan-2-yl)(6-methyl-2-(2H-1,2,3-triazol-2-yl)pyridin-3-yl)methanone]",119,> 10000,337
"O=C(c1cccc(F)c1-n1nccn1)N1C[C@H]2C[C@@H](Oc3ccc(Br)cn3)[C@@H]1C2 [Example 106, ((1S,4R,6R)-6-((5-bromopyridin-2-yl)oxy)-2-azabicyclo[2.2.1]heptan-2-yl)(3-fluoro-2-(2H-1,2,3-triazol-2-yl)phenyl)methanone]",3,436,4
"O=C(c1ccc(F)cc1-n1nccn1)N1C[C@H]2C[C@@H](Oc3ccc(Br)cn3)[C@@H]1C2 [Example 107, ((1S,4R,6R)-6-((5-bromopyridin-2-yl)oxy)-2-azabicyclo[2.2.1]heptan-2-yl)(4-fluoro-2-(2H-1,2,3-triazol-2-yl)phenyl)methanone]",16,1960,26
"O=C(c1c(F)cccc1-n1nccn1)N1C[C@H]2C[C@@H](Oc3ccc(Br)cn3)[C@@H]1C2 [Example 109, ((1S,4R,6R)-6-((5-bromopyridin-2-yl)oxy)-2-azabicyclo[2.2.1]heptan-2-yl)(2-fluoro-6-(2H-1,2,3-triazol-2-yl)phenyl)methanone]",6,442,5
"O=C(c1ccc(F)cc1-c1ncccn1)N1C[C@H]2C[C@@H](Oc3ccc(Br)cn3)[C@@H]1C2 [Example 110, ((1S,4R,6R)-6-((5-bromopyridin-2-yl)oxy)-2-azabicyclo[2.2.1]heptan-2-yl)(4-fluoro-2-(pyrimidin-2-yl)phenyl)methanone]",6,1200,11
"Cc1ccc(-n2nccn2)c(C(=O)N2C[C@H]3C[C@@H](Oc4ccc(Cl)cn4)[C@@H]2C3)n1 [Example 114, ((1S,4R,6R)-6-((5-chloropyridin-2-yl)oxy)-2-azabicyclo[2.2.1]heptan-2-yl)(6-methyl-3-(2H-1,2,3-triazol-2-yl)pyridin-2-yl)methanone]",11,668,23
"O=C(c1ccccc1-c1ncc(F)cn1)N1C[C@H]2C[C@@H](Oc3ccc(Cl)cn3)[C@@H]1C2 [Example 116, ((1S,4R,6R)-6-((5-chloropyridin-2-yl)oxy)-2-azabicyclo[2.2.1]heptan-2-yl)(2-(5-fluoropyrimidin-2-yl)phenyl)methanone]",11,939,12
"O=C(c1ccccc1-n1nccn1)N1C[C@H]2C[C@@H](Oc3ccc(F)cn3)[C@@H]1C2 [Example 118, (2-(2H-1,2,3-triazol-2-yl)phenyl)((1S,4R,6R)-6-((5-fluoropyridin-2-yl)oxy)-2-azabicyclo[2.2.1]heptan-2-yl)methanone]",133,1600,105
"O=C(c1cccc(F)c1-c1ncccn1)N1C[C@H]2C[C@@H](Oc3ccc(F)cn3)[C@@H]1C2 [Example 120, (3-fluoro-2-(pyrimidin-2-yl)phenyl)((1S,4R,6R)-6-((5-fluoropyridin-2-yl)oxy)-2-azabicyclo[2.2.1]heptan-2-yl)methanone]",60,4100,111

# More lines, in order of falling Ki [1], values ahead:
Ki [1] [nM],Ki [2] [nM],Ki [3] [nM],SMILES
28,218,30,"Cc1ccc(-n2nccn2)c(C(=O)N2C[C@H]3C[C@@H](Oc4ccc(C(F)F)cn4)[C@@H]2C3)n1 [Example 122, ((1S,4R,6R)-6-((5-(difluoromethyl)pyridin-2-yl)oxy)-2-azabicyclo[2.2.1]heptan-2-yl)(6-methyl-3-(2H-1,2,3-triazol-2-yl)pyridin-2-yl)methanone]"
17,984,14,"O=C(c1cc(F)ccc1-n1nccn1)N1C[C@H]2C[C@@H](Oc3ccc(Cl)cn3)[C@@H]1C2 [Example 113, ((1S,4R,6R)-6-((5-chloropyridin-2-yl)oxy)-2-azabicyclo[2.2.1]heptan-2-yl)(5-fluoro-2-(2H-1,2,3-triazol-2-yl)phenyl)methanone]"
16,1600,28,"O=C(c1cccc(F)c1-c1ncc(F)cn1)N1C[C@H]2C[C@@H](Oc3ccc(Cl)cn3)[C@@H]1C2 [Example 117, ((1S,4R,6R)-6-((5-chloropyridin-2-yl)oxy)-2-azabicyclo[2.2.1]heptan-2-yl)(3-fluoro-2-(5-fluoropyrimidin-2-yl)phenyl)methanone]"
13,1600,12,"O=C(c1cccc(F)c1-c1ncccn1)N1C[C@H]2C[C@@H](Oc3ncc(C(F)(F)F)cc3F)[C@@H]1C2 [Example 100, (3-fluoro-2-(pyrimidin-2-yl)phenyl)((1S,4R,6R)-6-((3-fluoro-5-(trifluoromethyl)pyridin-2-yl)oxy)-2-azabicyclo[2.2.1]heptan-2-yl)methanone]"
10,50,11,"O=C(c1ccccc1-n1nccn1)N1C[C@H]2C[C@@H](Oc3ccc(C(F)F)cn3)[C@@H]1C2 [Example 121, (2-(2H-1,2,3-triazol-2-yl)phenyl)((1S,4R,6R)-6-((5-(difluoromethyl)pyridin-2-yl)oxy)-2-azabicyclo[2.2.1]heptan-2-yl)methanone]"
8,776,31,"O=C(c1cc(F)ccc1-n1nccn1)N1C[C@H]2C[C@@H](Oc3ccc(Br)cn3)[C@@H]1C2 [Example 108, ((1S,4R,6R)-6-((5-bromopyridin-2-yl)oxy)-2-azabicyclo[2.2.1]heptan-2-yl)(5-fluoro-2-(2H-1,2,3-triazol-2-yl)phenyl)methanone]"
8,459,10,"O=C(c1ccccc1-n1nccn1)N1C[C@H]2C[C@@H](Oc3ccc(Cl)cn3)[C@@H]1C2 [Example 112, (2-(2H-1,2,3-triazol-2-yl)phenyl)((1S,4R,6R)-6-((5-chloropyridin-2-yl)oxy)-2-azabicyclo[2.2.1]heptan-2-yl)methanone]"
7,852,8,"O=C(c1cccc(F)c1-c1ncccn1)N1C[C@H]2C[C@@H](Oc3ccc(Cl)cn3)[C@@H]1C2 [Example 115, ((1S,4R,6R)-6-((5-chloropyridin-2-yl)oxy)-2-azabicyclo[2.2.1]heptan-2-yl)(3-fluoro-2-(pyrimidin-2-yl)phenyl)methanone]"
5,458,5,"O=C(c1cc(F)ccc1-c1ncccn1)N1C[C@H]2C[C@@H](Oc3ccc(Br)cn3)[C@@H]1C2 [Example 111, ((1S,4R,6R)-6-((5-bromopyridin-2-yl)oxy)-2-azabicyclo[2.2.1]heptan-2-yl)(5-fluoro-2-(pyrimidin-2-yl)phenyl)methanone]"
